pIC50: −log10 of the molar value. Read-outs that look alike come from different tables or passages of the source.
Legend:
IL-4/pSTAT6 = assay: Cytokine function assay IL-4/pSTAT6 in PBMC; type: cell-based
Protocol: (§1) Cytokine Function Assay Protocols for IL-4/pSTAT6 and GM-CSF/pSTAT5
IL-4/pSTAT6: • PBMC from a healthy donor was plated onto a 96 w plate. Compound was added and incubated for 1 hour (at 37° C.). After 1 hour, cells were stimulated with IL-4 for 15 minutes. Cells were fixed and stained with anti-pSTAT6 antibody. After staining, cells were read on a Beckman-Coulter CytoFLEX.

JAK2 = JAK2 (Homo sapiens (Human), UniProt O60674); assay: Biochemical kinase assay (33P-ATP filter-binding), JAK2; details: read-out: IC50 JAK2
JAK2, sequence (O60674 whole entry, species assumed): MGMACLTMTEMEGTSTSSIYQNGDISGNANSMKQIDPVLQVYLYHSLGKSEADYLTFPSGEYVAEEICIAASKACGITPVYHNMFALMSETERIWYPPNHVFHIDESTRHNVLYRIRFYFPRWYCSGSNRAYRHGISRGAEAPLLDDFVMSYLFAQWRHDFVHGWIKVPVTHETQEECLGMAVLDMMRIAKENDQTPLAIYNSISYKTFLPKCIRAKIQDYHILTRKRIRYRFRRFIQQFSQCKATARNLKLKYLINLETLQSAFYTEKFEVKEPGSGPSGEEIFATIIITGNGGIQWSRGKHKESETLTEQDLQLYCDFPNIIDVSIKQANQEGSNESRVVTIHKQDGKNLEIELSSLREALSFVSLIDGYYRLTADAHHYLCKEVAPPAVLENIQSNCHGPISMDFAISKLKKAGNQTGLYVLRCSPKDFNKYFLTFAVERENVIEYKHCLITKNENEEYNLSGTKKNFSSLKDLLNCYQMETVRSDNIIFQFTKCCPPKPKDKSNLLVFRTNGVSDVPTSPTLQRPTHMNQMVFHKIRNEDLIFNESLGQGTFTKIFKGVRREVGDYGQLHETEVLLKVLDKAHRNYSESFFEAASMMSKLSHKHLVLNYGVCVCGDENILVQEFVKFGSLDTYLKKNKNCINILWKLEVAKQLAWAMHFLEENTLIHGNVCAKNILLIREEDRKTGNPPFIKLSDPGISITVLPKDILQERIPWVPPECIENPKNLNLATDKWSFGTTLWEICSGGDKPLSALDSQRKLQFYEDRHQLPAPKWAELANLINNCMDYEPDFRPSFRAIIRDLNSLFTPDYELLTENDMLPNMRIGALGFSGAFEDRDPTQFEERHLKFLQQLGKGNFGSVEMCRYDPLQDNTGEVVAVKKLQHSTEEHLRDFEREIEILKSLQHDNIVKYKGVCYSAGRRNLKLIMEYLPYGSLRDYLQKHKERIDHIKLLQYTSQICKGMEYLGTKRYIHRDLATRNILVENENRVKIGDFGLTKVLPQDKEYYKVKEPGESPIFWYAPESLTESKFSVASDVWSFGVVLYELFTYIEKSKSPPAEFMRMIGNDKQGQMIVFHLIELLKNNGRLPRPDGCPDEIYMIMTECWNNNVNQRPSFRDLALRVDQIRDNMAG
Description: (§2) Biochemical Kinase Assay Protocol (JAK)
(§3) Reaction Procedure: • 1. […] Detected kinase activity by filter-binding method.

JAK1 = JAK1 (Homo sapiens (Human), UniProt P23458); assay: Biochemical kinase assay (33P-ATP filter-binding), JAK1; details: read-out: IC50 JAK1
JAK1, sequence (P23458 whole entry, species assumed): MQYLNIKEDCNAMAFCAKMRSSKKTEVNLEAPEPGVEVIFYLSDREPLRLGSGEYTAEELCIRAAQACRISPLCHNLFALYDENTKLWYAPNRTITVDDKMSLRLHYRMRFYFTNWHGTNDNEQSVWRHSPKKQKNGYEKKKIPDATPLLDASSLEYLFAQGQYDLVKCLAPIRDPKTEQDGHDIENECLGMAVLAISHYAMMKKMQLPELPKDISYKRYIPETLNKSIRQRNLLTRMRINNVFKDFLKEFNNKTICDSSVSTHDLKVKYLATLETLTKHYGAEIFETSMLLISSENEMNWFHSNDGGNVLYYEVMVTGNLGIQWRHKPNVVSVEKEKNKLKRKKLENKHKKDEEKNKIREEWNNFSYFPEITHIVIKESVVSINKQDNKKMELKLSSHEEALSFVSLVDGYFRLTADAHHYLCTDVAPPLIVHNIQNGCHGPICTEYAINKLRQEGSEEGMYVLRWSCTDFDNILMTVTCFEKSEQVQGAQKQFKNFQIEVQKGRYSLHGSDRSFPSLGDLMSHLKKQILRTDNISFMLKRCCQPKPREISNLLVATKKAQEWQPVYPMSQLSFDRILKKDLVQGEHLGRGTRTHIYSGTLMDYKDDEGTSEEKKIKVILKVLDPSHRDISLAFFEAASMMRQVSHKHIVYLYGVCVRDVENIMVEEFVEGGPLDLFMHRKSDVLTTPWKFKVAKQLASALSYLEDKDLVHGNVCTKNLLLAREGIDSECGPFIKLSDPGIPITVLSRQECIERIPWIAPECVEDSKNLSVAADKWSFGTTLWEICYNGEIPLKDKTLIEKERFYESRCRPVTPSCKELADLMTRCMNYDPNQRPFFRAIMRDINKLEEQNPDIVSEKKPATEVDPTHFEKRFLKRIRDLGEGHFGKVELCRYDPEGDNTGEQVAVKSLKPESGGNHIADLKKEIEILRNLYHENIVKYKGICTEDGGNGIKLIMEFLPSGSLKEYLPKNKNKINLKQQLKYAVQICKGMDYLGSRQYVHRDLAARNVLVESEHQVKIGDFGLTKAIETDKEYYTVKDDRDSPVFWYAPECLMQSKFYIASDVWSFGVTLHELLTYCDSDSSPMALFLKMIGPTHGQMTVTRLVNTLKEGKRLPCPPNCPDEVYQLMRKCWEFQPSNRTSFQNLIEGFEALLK
Description: as §2, §3

[1] = Dog LM (liver microsome) assay; type: in vitro ADME; details: predicted clearance as percent of liver blood flow
Protocol: Dog LM (Liver Microsome) Assay
The metabolic degradation of the test compound is assayed at 37° C. with pooled liver microsomes from dogs (Beagle). The final incubation volume of 100 μl per time point contains TRIS buffer pH 7.6 at RT (0.1 M), magnesium chloride (5 mM), microsomal protein (1 mg/ml) and the test compound at a final concentration of 1 μM. Following a short preincubation period at 37° C., the reactions were initiated by addition of beta-nicotinamide adenine dinucleotide phosphate, reduced form (NADPH, 1 mM) and terminated by transferring an aliquot into solvent after different time points. Additionally, the NADPH-independent degradation was monitored in incubations without NADPH, terminated at the last time point. The [%] remaining test compound after NADPH independent incubation is reflected by the parameter c (control) (metabolic stability). The quenched incubations are pelleted by centrifugation (10000 g, 5 min). An aliquot of the supernatant is assayed by LC-MS/MS for the amount of parent compound. The half-life (t½ INVITRO) is determined by the slope of the semilogarithmic plot of the concentration-time profile. The intrinsic clearance (CL_[…]) is calculated by considering the amount of protein in the incubation: CL_[…] [μl/min/mg protein]=(Ln 2/(half-life [min]*protein content [mg/ml]))*1000. For better across species comparison the predicted clearance is expressed as percent of the liver blood flow [% QH] in the individual species. In general, high stability (corresponding to low % QH) of the compounds across species is desired.

PDE4B = PDE4B (Homo sapiens (Human), UniProt Q07343); assay: PDE4B inhibition; type: biochemical
PDE4B, sequence (Q07343 whole entry, species assumed): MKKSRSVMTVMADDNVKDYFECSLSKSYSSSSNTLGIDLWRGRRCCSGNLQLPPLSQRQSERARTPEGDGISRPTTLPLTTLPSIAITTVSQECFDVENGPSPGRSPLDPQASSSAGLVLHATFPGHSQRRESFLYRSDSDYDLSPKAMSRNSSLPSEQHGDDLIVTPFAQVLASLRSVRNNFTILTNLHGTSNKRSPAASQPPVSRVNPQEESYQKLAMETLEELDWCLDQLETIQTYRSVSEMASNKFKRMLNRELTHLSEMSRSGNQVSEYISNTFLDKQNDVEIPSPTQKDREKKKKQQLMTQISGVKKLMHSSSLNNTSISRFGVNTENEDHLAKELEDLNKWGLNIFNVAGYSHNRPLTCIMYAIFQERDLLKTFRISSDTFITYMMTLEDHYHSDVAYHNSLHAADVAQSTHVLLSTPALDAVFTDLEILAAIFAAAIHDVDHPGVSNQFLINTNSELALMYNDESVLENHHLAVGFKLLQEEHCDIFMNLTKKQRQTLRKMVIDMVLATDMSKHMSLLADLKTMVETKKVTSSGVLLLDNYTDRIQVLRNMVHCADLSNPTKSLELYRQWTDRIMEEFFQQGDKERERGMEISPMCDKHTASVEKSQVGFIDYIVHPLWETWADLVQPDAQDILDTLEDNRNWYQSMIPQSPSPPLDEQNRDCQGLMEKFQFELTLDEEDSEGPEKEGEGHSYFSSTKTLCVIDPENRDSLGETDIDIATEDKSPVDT

GM-CSF/pSTAT5 = assay: Cytokine function assay GM-CSF/pSTAT5 in lysed whole blood cells; type: cell-based; details: Table 3b, comparator compounds; read-out: IC50 GM-CSF
Protocol: as §1
GM-CSF/pSTAT5: • Whole blood from a healthy donor was lysed to remove red blood cells. Cells were plated onto a 96 well plate. Compound was added and incubated for 1 hour (at 37° C.). After 1 hour, cells were stimulated with GM-CSF for 15 minutes. Cells were fixed and stained with anti-pSTAT5 antibody. After staining, cells were read on a Beckman-Coulter CytoFLEX.

[2] = PBMC, read-out: IC50 IL-4, Table 3a
[3] = Table 3a, 1 μM, 1 mg/ml microsomal protein
[4] = Table 3b, comparator compounds, read-out: IC50 IL-4

Structure (SMILES) | pIC50 (JAK2; Table 3a) | pIC50 (JAK1; Table 3a) | Dog LM QH [1, 3] | pIC50 (JAK2; Table 3b, comparator compounds) | pIC50 (JAK1; Table 3b, comparator compounds) | Dog LM QH ([1]; Table 3b, comparator compounds) | also measured
Cc1cnc(Nc2ccc3c(c2)COB3O)nc1N[C@@H]1CCC[C@H]1C#N (relative stereo) [Example 001, (trans)-2-((2-((1-hydroxy-1,3-dihydrobenzo[c][1,2]oxaborol-5-yl)amino)-5-methylpyrimidin-4-yl)amino)cyclopentane-1-carbonitrile] | 7.61 | 8.96 | 39.7% |  |  |  | pIC50 (IL-4/pSTAT6; [2]): 6.76; pIC50 (PDE4B; Table 3a): 6.44
N#C[C@@H]1CCC[C@H]1Nc1nc(Nc2ccc3c(c2)COB3O)ncc1Cl (relative stereo) [Example 005, (trans)-2-[[5-chloro-2-[(1-hydroxy-3H-2,1-benzoxaborol-5-yl)amino]pyrimidin-4-yl]amino]cyclopentane-1-carbonitrile] | 8.05 | 9.30 | <19.9% |  |  |  | pIC50 (PDE4B; Table 3a): 7.35
Cc1cnc(Nc2cc3c(c(C(F)(F)F)c2)B(O)OC3)nc1N[C@@H]1CCC[C@H]1C#N (relative stereo) [Example 006, (trans)2-[[2-[[1-hydroxy-7-(trifluoromethyl)-3H-2,1-benzoxaborol-5-yl]amino]-5-methyl-pyrimidin-4-yl]amino]cyclopentanecarbonitrile] | 7.44 | 9.00 | <19.9% |  |  |  | pIC50 (IL-4/pSTAT6; [2]): 6.69
Cc1cnc(Nc2ccc3c(c2)C=CB(O)O3)nc1N[C@@H]1COCC[C@H]1C#N (relative stereo) [Example 035, (trans)-3-[[2-[(2-hydroxy-1,2-benzoxaborinin-6-yl)amino]-5-methyl-pyrimidin-4-yl]amino]tetrahydropyran-4-carbonitrile] | 8.06 | 9.15 | 43.7% |  |  |  | pIC50 (PDE4B; Table 3a): 6.49
Cc1cnc(Nc2cc3c(c(C(F)(F)F)c2)OB(O)C=C3)nc1N[C@@H]1COCC[C@H]1C#N (relative stereo) [Example 037, (trans)-3-[[2-[[2-hydroxy-8-(trifluoromethyl)-1,2-benzoxaborinin-6-yl]amino]-5-methyl-pyrimidin-4-yl]amino]tetrahydropyran-4-carbonitrile] | 7.73 | 8.51 | 19.9% |  |  |  | pIC50 (IL-4/pSTAT6; [2]): 6.04
Cc1cnc(Nc2cc(Cl)c3c(c2)COB3O)nc1N[C@@H]1CCC[C@H]1C#N (single isomer, unassigned) [Example 003b, (trans)-2-((2-((7-chloro-1-hydroxy-1,3-dihydrobenzo[c][1,2]oxaborol-5-yl)amino)-5-methylpyrimidin-4-yl)amino)cyclopentane-1-carbonitrile] | 7.08 | 8.30 | <19.9% |  |  |  | pIC50 (IL-4/pSTAT6; read-out: IC50 IL-4, Table 3a): 7.13
Cc1cnc(Nc2cc(F)c3c(c2)C=CB(O)O3)nc1N[C@@H]1COCC[C@H]1C#N (single isomer, unassigned) [Example 036a, (trans)-3-((2-((8-fluoro-2-hydroxy-2H-benzo[e][1,2]oxaborinin-6-yl)amino)-5-methylpyrimidin-4-yl)amino)tetrahydro-2H-pyran-4-carbonitrile] | 8.32 | 9.52 | 33.1% |  |  |  | pIC50 (IL-4/pSTAT6; [2]): 6.80
Cc1cnc(Nc2ccc3c(c2)C(C(C)C)=CB(O)O3)nc1N[C@H]1COCC[C@@H]1C#N (single isomer, unassigned) [Example 039a, (trans)-3-((2-((2-hydroxy-4-isopropyl-2H-benzo[e][1,2]oxaborinin-6-yl)amino)-5-methylpyrimidin-4-yl)amino)tetrahydro-2H-pyran-4-carbonitrile] | 7.72 | 8.96 | 78.4% |  |  |  | pIC50 (IL-4/pSTAT6; [2]): 6.58
Cc1cnc(Nc2cc(Cl)c3c(c2)C(C(C)C)=CB(O)O3)nc1N[C@H]1COCC[C@@H]1C#N (single isomer, unassigned) [Example 040b, (trans)-3-((2-((8-chloro-2-hydroxy-4-isopropyl-2H-benzo[e][1,2]oxaborinin-6-yl)amino)-5-methylpyrimidin-4-yl)amino)tetrahydro-2H-pyran-4-carbonitrile] | 7.78 | 8.96 | 47.4% |  |  |  | pIC50 (IL-4/pSTAT6; [2]): 5.85
COc1cc(Nc2ncc(C)c(N[C@H]3COCC[C@@H]3C#N)n2)cc2c1B(O)OC2 (single isomer, unassigned) [Example 044a, (trans)-3-((2-((1-hydroxy-7-methoxy-1,3-dihydrobenzo[c][1,2]oxaborol-5-yl)amino)-5-methylpyrimidin-4-yl)amino)tetrahydro-2H-pyran-4-carbonitrile] | 9.10 | 9.70 | 34.9% |  |  |  | 
COc1cc(Nc2ncc(C)c(N[C@H]3COCC[C@@H]3C#N)n2)cc2c1B(O)OC2 (single isomer, unassigned) [Example 044b, (trans)-3-((2-((1-hydroxy-7-methoxy-1,3-dihydrobenzo[c][1,2]oxaborol-5-yl)amino)-5-methylpyrimidin-4-yl)amino)tetrahydro-2H-pyran-4-carbonitrile] | 7.01 | 7.47 | <19.9% |  |  |  | 
Cc1cnc(Nc2cc(Cl)c3c(c2)COB3O)nc1N[C@@H]1CCCOC1 [Example 030a] | 6.06 | 7.29 | <19.9% |  |  |  | 
CC1=Cc2cc(Nc3ncc(C)c(NC4COCCC4C#N)n3)ccc2OB1O (stereo not drawn) [Example 038, 3-[[2-[(2-hydroxy-3-methyl-1,2-benzoxaborinin-6-yl)amino]-5-methyl-pyrimidin-4-yl]amino]tetrahydropyran-4-carbonitrile] | 7.63 | 8.85 | 50.4% |  |  |  | 
CCC(CC)Nc1nc(Nc2cc(Cl)c3c(c2)COB3O)ncc1C [Example C002] |  |  |  | 7.02 | 8.96 | <19.9% | pIC50 (IL-4/pSTAT6; [4]): 6.81; pIC50 (GM-CSF/pSTAT5): 5.00
OB1OCc2cc(Nc3nccc(NC4CCCCC4)n3)ccc21 [Example C010] |  |  |  | 6.44 | 7.32 |  | pIC50 (PDE4B; Table 3b, comparator compounds): 6.02; Inhibition PDE4B @ 1 μM (PDE4B; Table 3b, comparator compounds): 53%
Cc1cnc(Nc2cc(Cl)c3c(c2)COB3O)nc1NC1CCCCC1 [Example C012] |  |  |  | 8.19 | 10.00 | <19.9% | pIC50 (IL-4/pSTAT6; [4]): 6.65; pIC50 (GM-CSF/pSTAT5): 5.75
OB1OCc2cc(Nc3ncc(Cl)c(NC4CCCC4)n3)cc(F)c21 [Example C015] |  |  |  | 7.58 | 9.10 | 67.2% | pIC50 (PDE4B; Table 3b, comparator compounds): 7.07
OB1OCc2cc(Nc3ncc(F)c(NC4CCCCC4)n3)ccc21 [Example C017] |  |  |  | 5.73 | 7.95 | 53.5% | pIC50 (IL-4/pSTAT6; [4]): 5.79; pIC50 (GM-CSF/pSTAT5): 5.00
OB1OCc2cc(Nc3ncc(Cl)c(NC4CCCCC4)n3)ccc21 [Example C018] |  |  |  | 6.93 |  | 56.0% | pIC50 (PDE4B; Table 3b, comparator compounds): 6.97
OB1OCc2cc(Nc3ncc(C(F)(F)F)c(NC4CCCC4)n3)ccc21 [Example C019] |  |  |  | 6.77 | 7.53 | 73.8% | pIC50 (PDE4B; Table 3b, comparator compounds): 6.56; Inhibition PDE4B @ 1 μM (PDE4B; Table 3b, comparator compounds): 90%
OB1OCc2cc(Nc3ncc(C(F)(F)F)c(NC4CCCCC4)n3)ccc21 [Example C020] |  |  |  | 6.40 | 7.36 | <19.9% | pIC50 (PDE4B; Table 3b, comparator compounds): 7.42
